As usually defined, the bioavailability is dose-corrected exposure relative to a reference, in per cent. A high value points to good availability.

The results in this text go back to patent publication US9732065B2, “Cyclic aminomethyl pyrimidine derivative” (Sumitomo Dainippon Pharma Co., Ltd., priority 2013, dated 2017).

Data set [1] can be described thus: Brain penetration study in rat. The following applies: brain and plasma, unbound brain-to-plasma drug concentration ratio. The format is in vivo. The method, then: In this study, the brain penetration of the present compound can be evaluated. Specifically, a 7-week-old SD-type or WKY-type rat received the subcutaneous administration of a solution of the present compound in saline or the oral administration of a suspension of the present compound in methylcellulose. Plasma and brain were collected from the treated rat 0.5 hour, 1 hour or 2 hours after the administration, and then the levels of the present compound in the plasma and the brain were measured by a LC-MS method.
The protein binding ratios of the present compound to the plasma and the brain were measured by an equilibrium dialysis method.
The levels of the present compound in the plasma and the brain as well as the plasma and brain protein binding ratios are applied to the following formula, and thus Kp,uu,brain (Unbound brain-to-plasma drug concentration ratio) can be calculated. Kp,uu,brain=(level of the present compound in the brain×(100−brain protein binding ratio (%))/100)/(level of the present compound in the plasma×(100−plasma protein binding ratio (%))/100)

For data set [2], the target named is T1, human adrenergic α1A receptor (Homo sapiens, UniProt P35348).
T1 construct: expressed in transfected cells; host or cells: CHO-K1 or HEK293 cells
T1 sequence (P35348 1-466): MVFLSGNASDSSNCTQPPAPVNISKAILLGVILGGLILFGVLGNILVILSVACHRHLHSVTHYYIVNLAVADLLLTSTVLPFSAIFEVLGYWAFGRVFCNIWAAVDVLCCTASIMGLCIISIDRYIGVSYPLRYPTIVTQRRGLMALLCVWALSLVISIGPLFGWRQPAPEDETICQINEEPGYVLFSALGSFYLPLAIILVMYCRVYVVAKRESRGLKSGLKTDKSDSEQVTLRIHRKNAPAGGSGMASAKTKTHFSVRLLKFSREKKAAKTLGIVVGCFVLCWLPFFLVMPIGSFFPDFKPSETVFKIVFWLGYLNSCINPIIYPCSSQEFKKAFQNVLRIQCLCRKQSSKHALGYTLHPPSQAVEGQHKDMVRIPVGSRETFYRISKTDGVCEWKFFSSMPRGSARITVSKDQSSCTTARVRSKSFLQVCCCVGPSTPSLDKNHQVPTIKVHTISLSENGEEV
Kind of data set: Agonistic/antagonistic activity in G protein dependent pathway (aequorin intracellular calcium luminescence), α1A. The class given is cell-based. Particulars: for Maximal activity on each receptor (%): α1A: 10 μM adrenaline = 100%; for inhibition at 0.1 µM / inhibition at 1 µM: against 10 μM endogenous ligand, read-out: Inhibitory activity on each receptor (%): α1A. How it is done: (§1) Plasmids encoding each receptor, aequorin and Gα16 were prepared, and the plasmids were transfected into CHO cells (Chinese Hamster Ovary cells) or HEK293 cells (Human Embryonic Kidney 293 cells) to prepare expressing cell lines.
(§2) The agonistic or antagonistic activity of the present compound in the G protein dependent pathway was evaluated on the basis of intracellular calcium levels as follows. CHO-K1 or HEK293 cell lines transfected with D2, D4, α1A, or α2A receptor genes were seeded in a 384-well plate, and incubated in a CO2 incubator at 37° C. for 24 hours, and then a solution of the present compound in DMSO was added into cells preloaded with coelenterazine to measure the change in luminescent signals with a FDSS (Hamamatsu Photonics K.K.). […] The agonistic activity of the present compound was calculated according to the measured luminescent signals, as the maximal activity (Emax) of the present compound. On the other hand, the antagonistic activity of the present compound was calculated according to the luminescent signals in wells with 10 μM of an endogenous ligand alone defined as 100%, as the inhibitory activity of the present compound to an endogenous ligand. EC50 value was calculated as the concentration of the present compound required to achieve a 50% response, and IC50 was calculated as the concentration of the present compound required to achieve a 50% inhibition of the Emax of an endogenous ligand.
(Calcium flux is commonly read through the fluorescence of an indicator in the cells.)

Data set [3] has as its target T2, Human dopamine D4 receptor (Homo sapiens, UniProt P21917).
T2 sequence (P21917 1-419): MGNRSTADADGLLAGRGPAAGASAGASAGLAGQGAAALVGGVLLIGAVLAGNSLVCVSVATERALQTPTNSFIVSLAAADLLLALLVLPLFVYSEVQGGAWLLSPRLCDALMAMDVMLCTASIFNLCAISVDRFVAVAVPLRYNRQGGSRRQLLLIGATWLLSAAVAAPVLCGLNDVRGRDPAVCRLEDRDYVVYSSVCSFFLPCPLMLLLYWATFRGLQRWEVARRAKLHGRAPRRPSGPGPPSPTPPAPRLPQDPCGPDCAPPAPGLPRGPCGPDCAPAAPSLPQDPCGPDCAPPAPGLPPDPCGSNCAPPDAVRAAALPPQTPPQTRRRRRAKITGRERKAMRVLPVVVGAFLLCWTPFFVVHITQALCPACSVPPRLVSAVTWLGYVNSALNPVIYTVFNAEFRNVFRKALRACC
The experiment in a line: Agonistic/antagonistic activity in G protein dependent pathway (aequorin intracellular calcium luminescence), D4. The class given is cell-based. Further details: expressed in transfected cells; host or cells: CHO-K1 or HEK293 cells. The following applies: for inhibition at 0.1 µM / inhibition at 1 µM: against 10 μM endogenous ligand, read-out: Inhibitory activity on each receptor (%): D4; for Emax at 0.1 µM / Emax at 1 µM: read-out: Maximal activity on each receptor (%): D4. How it is done: as §1, §2

A short description of data set [4]: PK study in rat (bioavailability). The format is in vivo. Particulars: plasma, oral vs intravenous administration. The method, then: In this study, the pharmacokinetics of the present compound can be evaluated. Specifically, a 7-week-old SD-type or WKY-type rat received the intravenous administration of a solution of the present compound in saline or the oral administration of a suspension of the present compound in carboxymethylcellulose or methylcellulose. Blood was collected from the rat at each time below.
Intravenous administration: 5 minutes, 15 minutes, 30 minutes, 1 hour, 2 hours, 4 hours, 6 hours, and 24 hours after administration
Oral administration: 15 minutes, 30 minutes, 1 hour, 2 hours, 4 hours, 6 hours, and 24 hours after administration
Plasma was collected from the blood, the levels of the present compound in the plasma were measured by a LC-MS method, and then the pharmacokinetic parameters were calculated on the basis of the level changes.

Data set [5] concerns the target T2, Human dopamine D4 receptor. The experiment in a line: G protein independent pathway: β-arrestin recruit ability (PathHunter β-galactosidase). The class given is cell-based. Further details: expressed in transfected cells. Particulars: β-arrestin recruitment, 90 minutes; 10 μM dopamine = 100%. The method, then:
The activation of the G protein independent pathway was evaluated on the basis of the recruit ability of β-arrestin as follows. Cell lines transfected with D4 receptor genes were seeded in a 384-well plate, and incubated in a CO2 incubator at 37° C. for 24 hours, a solution of the present compound in DMSO was added into the cells, and then the cells were left at 37° C. for 90 minutes. Buffer containing β-galactosidase reaction substance (PathHunter Cell Assay Buffer, DiscoverRx) was added thereto, and luminescent signals in the wells were measured with a FDSS (Hamamatsu Photonics K.K.). […] The maximal activity (Emax) of the present compound was calculated according to the measured luminescent signals. EC50 value was calculated as the concentration of the present compound required to achieve a 50 response.
(Arrestin recruitment assays detect the binding of arrestin to an activated receptor.)

On to `Cc1ncc(CN2CCC(c3cccnc3)CC2)c(C)n1` [Example 45, 2,4-Dimethyl-5-[4-(pyridin-3-yl)piperidin-1-ylmethyl]pyrimidine], for which the Kp uu in data set [1] turned out to be 0.8. For the same compound, in data set [2] (0.1 μM), the “Maximal activity on each receptor (%): α1A” value (“Maximal activity … (%): α1A” for short) stood at 0.03% and the inhibition at 0.1 µM is -5.6%. Moreover, in data set [2] (1 μM), the “Maximal activity … (%): α1A” value came to 0.08% and the inhibition at 1 µM was -0.73%. For the same compound, in data set [3], the inhibition at 0.1 µM worked out at 72%, the inhibition at 1 µM amounted to 87%, the Emax at 0.1 µM amounted to 20% and the Emax at 1 µM turned out to be 35%. Further, the bioavailability in data set [4] was 21.6%. Further, the “Maximal activity on D4 receptor (%)” value in data set [5] is reported as 9%.

`Nc1ncc(CN2CCC(c3ccccn3)CC2)cn1` [Example 36]: the Kp uu in data set [1] amounted to 2.28. In data set [3], the Emax at 1 µM came to 82%. Further, in data set [4], the bioavailability came to 67.2%.

On to `Nc1ncc(CN2CCC(c3cncc(F)c3)CC2)cn1` [Example 46, 5-[4-(5-Fluoropyridin-3-yl)piperidin-1-ylmethyl]pyrimidin-2-amine], for which the Kp uu in data set [1] came to 1.8. Also, in data set [2] (0.1 μM), the “Maximal activity … (%): α1A” value is on record as 0.08% and the inhibition at 0.1 µM is -6.4%. For the same compound, in data set [2] (1 μM), the “Maximal activity … (%): α1A” value was 0.23% and the inhibition at 1 µM was -17%. Moreover, in data set [3], the inhibition at 0.1 µM amounted to 61%, the inhibition at 1 µM was found to be 85%, the Emax at 0.1 µM was 14% and the Emax at 1 µM is 40%. Further, in data set [4], the bioavailability turned out to be 92.2%. The “Maximal activity on D4 receptor (%)” value in data set [5] is reported as 11%.

With `Cc1ncc(CN2CCC(c3ccccn3)CC2)c(C)n1` [Example 44, 2,4-Dimethyl-5-[4-(pyridin-2-yl)piperidin-1-ylmethyl]pyrimidine], the Kp uu in data set [1] came to 0.8. In data set [2] (0.1 μM), the “Maximal activity … (%): α1A” value is 0.04% and the inhibition at 0.1 µM came out at 2.7%. In data set [2] (1 μM), the “Maximal activity … (%): α1A” value is 0.01% and the inhibition at 1 µM was found to be 2.6%. In data set [3], the inhibition at 0.1 µM was determined as 58%, the inhibition at 1 µM came out at 78%, the Emax at 0.1 µM turned out to be 27% and the Emax at 1 µM came out at 64%. This compound came in with a bioavailability in data set [4] of 27.6%. Also, the “Maximal activity on D4 receptor (%)” value in data set [5] is listed as 6%.
